# According to patent US9771370B2, “Compounds for the inhibition of indoleamine-2,3-dioxygenase” (Merck Patent GmbH, priority 2014, dated 2017):
# Biological target: Recombinant human IDO (Homo sapiens, UniProt P14902)
# Assay: Bridge-IT tryptophan fluorescence assay of human IDO-1 inhibition
# Type: biochemical
# Conditions: recombinant human IDO 7.5 nM, L-tryptophan
# Outline: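 One variant ran L-Trp at 100 μM for 90 min at 37 °C. The other pre-incubated compound for 30 min at 25 °C, then ran 50 μM L-Trp for 60 min at 25 °C.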
# Chain of Recombinant human IDO (P14902 whole entry): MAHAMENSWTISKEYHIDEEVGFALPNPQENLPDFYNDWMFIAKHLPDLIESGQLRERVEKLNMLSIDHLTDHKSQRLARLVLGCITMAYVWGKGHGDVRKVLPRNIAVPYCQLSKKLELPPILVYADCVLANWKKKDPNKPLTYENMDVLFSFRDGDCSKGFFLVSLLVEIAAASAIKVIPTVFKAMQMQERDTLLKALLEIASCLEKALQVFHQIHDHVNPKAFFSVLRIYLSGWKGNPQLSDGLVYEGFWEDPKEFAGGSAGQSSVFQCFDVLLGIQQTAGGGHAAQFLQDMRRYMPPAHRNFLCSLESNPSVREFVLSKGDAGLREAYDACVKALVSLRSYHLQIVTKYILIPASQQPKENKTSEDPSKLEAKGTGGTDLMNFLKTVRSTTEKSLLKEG
row,SMILES,IC50
1,"OC1(C2CCC(F)(CCC3c4ccccc4-c4cncn43)CC2)CC1 (single isomer, unassigned) [Compound 60d, 1-[4-fluoro-4-[2-[5H-imidazo[4,3-a]isoindol-5-yl]ethyl]cyclohexyl]cyclopropan-1-ol]",< 100 nM
2,"CC(C)(O)C1CCC(F)(CCC2c3ccccc3-c3cncn32)CC1 (single isomer, unassigned) [Compound 61a, 2-[4-fluoro-4-[2-[5H-imidazo[4,3-a]isoindol-5-yl]ethyl]cyclohexyl]propan-2-ol]",> 1000 nM
3,"CC(C)(O)C1CCC(F)(CCC2c3ccccc3-c3cncn32)CC1 (single isomer, unassigned) [Compound 61b, 2-[4-fluoro-4-[2-[5H-imidazo[4,3-a]isoindol-5-yl]ethyl]cyclohexyl]propan-2-ol]",> 1000 nM
4,"CC(C)(O)C1CCC(F)(CCC2c3ccccc3-c3cncn32)CC1 (single isomer, unassigned) [Compound 61c, 2-[4-fluoro-4-[2-[5H-imidazo[4,3-a]isoindol-5-yl]ethyl]cyclohexyl]propan-2-ol]",< 100 nM
5,"CC(C)(O)C1CCC(F)(CCC2c3ccccc3-c3cncn32)CC1 (single isomer, unassigned) [Compound 61d, 2-[4-fluoro-4-[2-[5H-imidazo[4,3-a]isoindol-5-yl]ethyl]cyclohexyl]propan-2-ol]",< 100 nM
6,"OC(CC1CCCCC1)CC1c2ncccc2-c2cncn21 (single isomer, unassigned) [Compound 62a, 1-cyclohexyl-3-[4,6,9-triazatricyclo[6.4.0.0^[2,6]]dodeca-1(8),2,4,9,11-pentaen-7-yl]propan-2-ol]",100 to 1000 nM
7,"OC(CC1CCCCC1)CC1c2ncccc2-c2cncn21 (single isomer, unassigned) [Compound 62c, 1-cyclohexyl-3-[4,6,9-triazatricyclo[6.4.0.0^[2,6]]dodeca-1(8),2,4,9,11-pentaen-7-yl]propan-2-ol]",> 1000 nM
8,"OC(CC1CCCCC1)CC1c2ncccc2-c2cncn21 (single isomer, unassigned) [Compound 62d, 1-cyclohexyl-3-[4,6,9-triazatricyclo[6.4.0.0^[2,6]]dodeca-1(8),2,4,9,11-pentaen-7-yl]propan-2-ol]",> 1000 nM
9,"NC(=O)C1CCC(C(O)CC2c3ncccc3-c3cncn32)CC1 (single isomer, unassigned) [Compound 63b, 4-[1-hydroxy-2-[4,6,9-triazatricyclo[6.4.0.0^[2,6]]dodeca-1(8),2,4,9,11-pentaen-7-yl]ethyl]cyclohexane-1-carboxamide]",> 1000 nM
10,"NC(=O)C1CCC(C(O)CC2c3ncccc3-c3cncn32)CC1 (single isomer, unassigned) [Compound 63c, 4-[1-hydroxy-2-[4,6,9-triazatricyclo[6.4.0.0^[2,6]]dodeca-1(8),2,4,9,11-pentaen-7-yl]ethyl]cyclohexane-1-carboxamide]",> 1000 nM
11,"NC(=O)C1CCC(C(O)CC2c3ncccc3-c3cncn32)CC1 (single isomer, unassigned) [Compound 63d, 4-[1-hydroxy-2-[4,6,9-triazatricyclo[6.4.0.0^[2,6]]dodeca-1(8),2,4,9,11-pentaen-7-yl]ethyl]cyclohexane-1-carboxamide]",> 1000 nM
12,"CC1(C)CCC(F)(CCC2c3ncncc3-c3cncn32)CC1 (single isomer, unassigned) [Compound 66a, 7-[2-(1-fluoro-4,4-dimethylcyclohexyl)ethyl]-4,6,9,11-tetraazatricyclo[6.4.0.0^[2,6]]dodeca-1(8),2,4,9,11-pentaene]",> 1000 nM
13,"CC1(C)CCC(F)(CCC2c3ncncc3-c3cncn32)CC1 (single isomer, unassigned) [Compound 66b, 7-[2-(1-fluoro-4,4-dimethylcyclohexyl)ethyl]-4,6,9,11-tetraazatricyclo[6.4.0.0^[2,6]]dodeca-1(8),2,4,9,11-pentaene]",> 1000 nM
14,"OC(CC1c2ncncc2-c2cncn21)C1CCCCC1 (single isomer, unassigned) [Compound 67b, 1-cyclohexyl-2-[4,6,9,11-tetraazatricyclo[6.4.0.0^[2,6]]dodeca-1(8),2,4,9,11-pentaen-7-yl]ethan-1-ol]",> 1000 nM
15,"OC(CC1c2ncncc2-c2cncn21)C1CCCCC1 (single isomer, unassigned) [Compound 67c, 1-cyclohexyl-2-[4,6,9,11-tetraazatricyclo[6.4.0.0^[2,6]]dodeca-1(8),2,4,9,11-pentaen-7-yl]ethan-1-ol]",> 1000 nM
16,"OC(CC1c2nc(OC3CC3)ccc2-c2cncn21)C1CCCCC1 (single isomer, unassigned) [Compound 68a, 1-cyclohexyl-2-[10-cyclopropoxy-4,6,9-triazatricyclo[6.4.0.0^[2,6]]dodeca-1(8),2,4,9,11-pentaen-7-yl]ethan-1-ol]",100 to 1000 nM
17,"OC(CC1c2nc(OC3CC3)ccc2-c2cncn21)C1CCCCC1 (single isomer, unassigned) [Compound 68c, 1-cyclohexyl-2-[10-cyclopropoxy-4,6,9-triazatricyclo[6.4.0.0^[2,6]]dodeca-1(8),2,4,9,11-pentaen-7-yl]ethan-1-ol]",> 1000 nM
18,"OC(CC1c2nc(OC3CC3)ccc2-c2cncn21)C1CCC(F)(F)CC1 (single isomer, unassigned) [Compound 69a, 2-[10-cyclopropoxy-4,6,9-triazatricyclo[6.4.0.0^[2,6]]dodeca-1(8),2,4,9,11-pentaen-7-yl]-1-(4,4-difluorocyclohexyl)ethan-1-ol]",100 to 1000 nM
19,"OC(CC1c2nc(OC3CC3)ccc2-c2cncn21)C1CCC(F)(F)CC1 (single isomer, unassigned) [Compound 69b, 2-[10-cyclopropoxy-4,6,9-triazatricyclo[6.4.0.0^[2,6]]dodeca-1(8),2,4,9,11-pentaen-7-yl]-1-(4,4-difluorocyclohexyl)ethan-1-ol]",> 1000 nM
20,"OC(CC1c2nc(OC3CC3)ccc2-c2cncn21)C1CCC(F)(F)CC1 (single isomer, unassigned) [Compound 69c, 2-[10-cyclopropoxy-4,6,9-triazatricyclo[6.4.0.0^[2,6]]dodeca-1(8),2,4,9,11-pentaen-7-yl]-1-(4,4-difluorocyclohexyl)ethan-1-ol]",> 1000 nM
21,"OC(CC1c2nc(OC3CC3)ccc2-c2cncn21)C1CCC(F)(F)CC1 (single isomer, unassigned) [Compound 69d, 2-[10-cyclopropoxy-4,6,9-triazatricyclo[6.4.0.0^[2,6]]dodeca-1(8),2,4,9,11-pentaen-7-yl]-1-(4,4-difluorocyclohexyl)ethan-1-ol]",> 1000 nM
22,"FC1(CCC2c3c(Cl)cccc3-c3cncn32)CCCCC1 (single isomer, unassigned) [Compound 70a, 6-chloro-5-[2-(1-fluorocyclohexyl)ethyl]-5H-imidazo[4,3-a]isoindole]",> 1000 nM
23,"FC1(CCC2c3c(Cl)cccc3-c3cncn32)CCCCC1 (single isomer, unassigned) [Compound 70b, 6-chloro-5-[2-(1-fluorocyclohexyl)ethyl]-5H-imidazo[4,3-a]isoindole]",100 to 1000 nM
24,"OC1CCC(F)(CCC2c3c(Cl)cccc3-c3cncn32)CC1 (single isomer, unassigned) [Compound 71a, 4-[2-[6-chloro-5H-imidazo[4,3-a]isoindol-5-yl]ethyl]-4-fluorocyclohexan-1-ol]",100 to 1000 nM
